From patent US8173438B1, “Microbiological assessment method and device utilizing oxygen gradient sensing” (Photonic BioSystems, Inc., priority 1996, dated 2012) come the findings set out here.

Common to all, as to assay type: cell-based
Assay [1] concerns B. subtilis cells. The assay can be described thus: Companion study: integrated sensor-BI, 8,000 cells collected by filtration on glass-fiber oxygen-sensor disks. The note with it: for signal change: at about 3.5 hours (control 5% signal increase). On the procedure:
A similar companion study, indicated the potential of the integrated sensor-BI to detect microbial activity and identify antibiotic sensitivity in several hours, using a small number of organisms to initiate the test. Inoculum of only 8,000 B. subtilis cells were collected by filtration, similar to Example 9, on oxygen-sensor disks made from Millipore AP-40 glass-fiber filter material (0.7 micron particle retention). In about 3.5 hours, without antibiotic present, the population expanded in the integrated biological sensor control, producing a 5% level signal increase, i.e. positive indication of outgrowth. […] After 8 hours of incubation, the low-dose penicillin exposed population eventually expanded enabling assay detection of outgrowth. No activity was identified in the sample exposed to the high dose at any point over the 20 hour assay.

In assay [2] the test system is B. subtilis organisms. The assay can be described thus: Bulk-volume suspension culture antibiotic test with oxygen-sensor disk at vessel bottom. The note with it: after 60 minutes, control 2%. On the procedure: Alternatively, as a comparison of outgrowth and detection of antibiotic effects under bulk-volume assay conditions, identical aliquots of B. subtilis organisms were and mixed into 1 ml samples of TSB media prepared with and without penicillin as described above and dispensed into vessels. To measure oxygen consumption of the organisms in these bulk suspension samples, oxygen-sensor disks of the same derivation as the above integrated sensors, but without organisms applied to them, were placed in the bottom of the vessels.
(§1) All samples were prepared and cultured in parallel, incubated at 37° C. and the oxygen consumption tracked via the integrated sensors' luminescent signals, in a manner similar to that shown in FIG. 7. […] The inhibitory effect of penicillin on organisms' growth was already manifesting itself in this time frame.
By comparison, the bulk volume cultures of B. subtilis after 60 minutes were just beginning to show indications of growth but were too early into the assay to identify inhibitory effects. The control, without antibiotic present, was just 2% above baseline, which was the same signal level as the 5 ng/ml penicillin sample. The 5 ug/ml high dose registered 1% above baseline.

For assay [3], the system named is B. subtilis organisms. The assay can be described thus: Integrated biological sensor disk antibiotic susceptibility test (oxygen consumption via luminescent signal), 400,000 cells per disk. On the procedure: In this example, organisms were applied to the integrated biological sensor disk in order to attain rapid measures of activity within the disk's microenvironment while the disk was incubated in culture media containing the antibiotic being assayed for effects on the microbial population.
B. subtilis organisms were cultured in Trypticase Soy Broth (TSB) media to obtain an inoculum of actively growing test organisms. Twenty microliter aliquots, each containing 400,000 cells (established by subsequent plate counting), were removed, and dispensed onto 0.25 inch diameter dry oxygen-sensor disks prepared from 0.45 micron pore cellulose-ester filter membrane stock (Millipore), in a manner similar to that described in Example 7. These integrated biological sensor disks bearing organisms were placed at the bottom of sterile polypropylene vessels, to which was added 1 ml of TSB media containing penicillin at concentrations of 5 ug/ml, or 5 ng/ml, or no antibiotic in the case of the positive growth control.
as §1

Regarding penicillin, the “activity (outgrowth / oxygen consumption)” value in assay [1] (high dose penicillin (5 ug/ml), at any point over the 20 hour assay) is on record as “No activity”. In addition, the “incubation time to assay detection of outgrowth” value in assay [1] (low-dose penicillin (5 ng/ml), control about 3.5 hours) came out at 8 h. Further, the signal change result in assay [1] (penicillin 5 ng/ml) and in assay [1] (penicillin 5 ug/ml) was “No signal change” in each case. Also, the signal above baseline in assay [2] (penicillin 5 ng/ml) was 2%; in assay [2] (penicillin 5 ug/ml) it was 1%. Also, in assay [3] (conclusion from 5 ng/ml and 5 ug/ml samples), the “sensitivity of the organisms to the antibiotic” value is recorded as “sensitive”. Moreover, the “signal increase (luminescent oxygen sensor signal above baseline)” value in assay [3] (penicillin 5 ng/ml, after 60 minutes of assay, 37° C., TSB media, control without penicillin 12%) is 6%. Further, in assay [3] (penicillin 5 ug/ml, throughout 40 hours of monitoring, 37° C.), the “metabolic activity (oxygen consumption)” value is on record as “no evidence of metabolic activity”.
